Where a name gives a salt, the structure may show the parent alone. Read-outs that look alike come from different tables or passages of the source.
Experiments:
[1] = system: Isolated Rat Bladder Strips; assay: Inhibition of contractions in isolated rat bladder strips; type: cell-based; conditions: for IC50: contractions enhanced by additional 15 mM KCl, read-out: IC50 /μM Bladder (B); for IC50 (A)/ IC50 (B): ratio aorta/bladder, indication of selectivity
Experimental: Sprague-Dawley rats (150-200 g) are rendered unconscious by CO2 asphyxiation and then euthanized by cervical dislocation. […] The bladder is opened and then cut into strips 1-2 mm in width and 7-10 mm in length. The strips are subsequently suspended in a 10 mL tissue bath under an initial resting tension of 1.5 g. The strips are held in place by two surgical clips one of which is attached to a fixed hook while the other is attached to an isometric force transducer. […] The carbachol is then washed out and the tissue allowed to relax to its resting level of activity. Following a further 30 min period of recovery an additional 15 mM KCl are introduced into the tissue bath. […] Following stabilization of this enhanced level of contractile activity, incremental increases in the concentration of test compound or vehicle are introduced into the tissue bath. Contractile activity is measured for each compound or vehicle concentration during the last minute of a 30 minute challenge.

[2] = system: Aorta; assay: Inhibition of contractions in aorta (indication of selectivity); type: cell-based; conditions: aorta
[3] = system: hypertrophied bladder (detrussor) smooth muscle; assay: Inhibition of spontaneous contractions in vivo, hypertrophied rat bladder model; conditions: 30 mg/kg i.v.
Source text: In addition, we tested the ability of compounds to inhibit the hyperactivity of hypertrophied bladder (detrussor) smooth muscle in conscious female rats with hypertrophied bladders and thereby alleviate urinary incontinence in rats according to the following protocol described by Malmgrem (A. Malmgrem, K. E. Andersson, C. Sjogren, P. O. Andersson, Effects of Pinacidil and Cromakalim (BRL 34915) on Bladder Function in Rats with Detrusor Instability, J. Urol. 142:1134, 1989.):
Female Sprague-Dawley rats, ranging in weight from 190-210 g are used. Up to 25 animals are prepared each time. After development of bladder hypertrophy 4-8 animals are used per test.
Compounds are dissolved in PEG-200 and administered by gastric gavage or intraveneously in a volume of 5 mL/kg. For primary screening all drugs are administered at the arbitrary dose of 10 mg/kg p.o. to groups of 4 rats.
The animals are anesthetized with halothane. […]
The following urodynamic variables are recorded:
The mean value of each variable is calculated before and after compound administration. For each compound the changes in the variables measured are compared to the values obtained before treatment and expressed as percent inhibition. The data are also subjected to 2-way analysis of variance to determine significant (p<0.05) changes in the variable measured. […]

[4] = biological target: T1, calcium-dependent large conductance potassium channels (maxi K^+) (Rattus norvegicus, UniProt Q62976); assay: Potassium channel activation, whole cell patch clamp in isolated rat detrusor cells; type: cell-based; conditions: glyburide 5 μM added to the superfusate; data not shown
T1 construct: endogenous in cells; host or cells: freshly isolated rat detrusor (urinary bladder smooth muscle) cells
T1 sequence (Q62976 whole entry): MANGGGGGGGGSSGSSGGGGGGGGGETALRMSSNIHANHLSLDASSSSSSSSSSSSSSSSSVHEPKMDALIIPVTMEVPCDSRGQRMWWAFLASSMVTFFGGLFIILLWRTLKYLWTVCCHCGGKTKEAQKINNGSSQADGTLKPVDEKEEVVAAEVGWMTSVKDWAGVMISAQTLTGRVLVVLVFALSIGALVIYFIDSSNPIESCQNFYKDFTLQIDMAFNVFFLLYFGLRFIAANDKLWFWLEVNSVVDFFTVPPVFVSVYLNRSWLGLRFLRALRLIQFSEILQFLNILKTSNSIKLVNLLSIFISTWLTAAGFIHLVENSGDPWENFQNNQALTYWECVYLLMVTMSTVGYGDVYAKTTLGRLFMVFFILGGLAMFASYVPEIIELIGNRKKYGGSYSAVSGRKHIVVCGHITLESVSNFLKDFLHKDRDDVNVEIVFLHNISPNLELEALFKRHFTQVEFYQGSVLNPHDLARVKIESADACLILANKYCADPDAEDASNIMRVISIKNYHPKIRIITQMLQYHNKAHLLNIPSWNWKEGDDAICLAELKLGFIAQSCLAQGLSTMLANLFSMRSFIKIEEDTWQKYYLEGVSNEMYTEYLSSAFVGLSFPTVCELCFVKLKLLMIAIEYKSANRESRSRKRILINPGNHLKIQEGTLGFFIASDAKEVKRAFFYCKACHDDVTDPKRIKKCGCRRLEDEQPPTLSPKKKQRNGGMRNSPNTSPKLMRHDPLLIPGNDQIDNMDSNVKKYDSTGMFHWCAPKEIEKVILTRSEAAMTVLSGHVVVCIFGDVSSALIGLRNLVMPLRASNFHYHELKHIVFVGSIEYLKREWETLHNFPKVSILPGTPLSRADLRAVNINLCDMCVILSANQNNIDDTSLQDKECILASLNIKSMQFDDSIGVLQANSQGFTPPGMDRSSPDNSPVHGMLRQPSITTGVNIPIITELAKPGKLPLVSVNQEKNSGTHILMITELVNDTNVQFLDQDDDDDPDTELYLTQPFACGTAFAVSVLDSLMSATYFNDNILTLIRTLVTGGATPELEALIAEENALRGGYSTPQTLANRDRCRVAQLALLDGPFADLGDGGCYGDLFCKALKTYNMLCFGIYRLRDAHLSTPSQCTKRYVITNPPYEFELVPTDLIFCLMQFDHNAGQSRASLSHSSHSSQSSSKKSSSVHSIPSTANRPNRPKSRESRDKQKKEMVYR
T1 sequence (P97678 whole entry partner): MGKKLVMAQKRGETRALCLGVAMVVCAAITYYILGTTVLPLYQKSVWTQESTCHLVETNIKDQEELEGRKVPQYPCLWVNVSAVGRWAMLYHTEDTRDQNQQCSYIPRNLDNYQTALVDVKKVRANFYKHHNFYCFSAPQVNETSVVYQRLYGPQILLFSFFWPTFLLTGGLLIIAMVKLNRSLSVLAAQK
Experimental: Potassium channel activation by compounds of the present invention was established by examining the effect of the compound of Example 1 on calcium-dependent large conductance potassium channels (maxi K^+) as follows:
Rat detrusor cells were isolated in a manner previously described for guinea-pig detrusor (Sheldon and Argentieri, 1995). Male Sprague-Dawley rats (200-400 grams) were euthanized by CO2 inhalation and exsanguination. Their urinary bladders were rapidly removed and placed in 37° C. physiological solution with the following composition (mM): Na glutamate (80.0), NaCl (54.7), KCl (5.0), NaHCO3 (25.0), MgCl2.2H2 O (2.5), D-glucose (11.8) and CaCl2 (0.2) gassed with CO2 --O2, 95%/5% for a final pH of 7.4. The dome of the bladder was isolated from the trigon region and the mucosa was removed. This tissue was then cut into 2-3 mm wide strips and placed in fresh buffer for 1 hour. Tissues were then transferred into 10.0 ml of an isolation buffer containing the above composition plus collagenase type VIII (1.0 mg/ml) and pronase (0.25 mg/ml). After 10 minutes the isolation buffer was replaced with fresh isolation buffer for an additional 10 min. […]
Whole cell recordings were made using broken patch assess. […] After stability was achieved control currents were recorded. […] Currents were recorded for 5 to 10 minutes or until compound effects reached steady state. […]

[5] = Rattus norvegicus, isolated rat bladder strips
[6] = isolated rat bladder strips, lithium salt hemihydrate

Row | SMILES | IC50 [1, 5] [µM] | IC50 (A)/ IC50 (B) [1] | IC50 [2] [µM] | also measured
1 | C/C(=C\c1ccc(C(F)(F)F)cc1)C(=O)Nc1ccccc1C(=O)O [Example 1, Step 3, (E)-2-[2-Methyl-3-(4trifluoromethyl-phenyl)-acryloylamino]-benzoic acid] | 3.7 ± 2.1 | 16.5 | 61.2 ± 9.2 | –
2 | O=C(CCc1ccc(C(F)(F)F)cc1)Nc1ccccc1C(=O)O [Example 2, 2-[3-(4-Trifluoromethyl-phenyl)-propionylamino]-benzoic acid] | 14.1 ± 1.77 | 8.4 | 118 ± 27.6 | –
3 | O=C(/C=C/c1ccc(Br)cc1)Nc1ccccc1C(=O)O [Example 3, (E)-2-[3-(4-Bromo-phenyl)-acryloylamino]-benzoic acid] | 4.9 ± 2.6 | 11 | 53.5 ± 7 | –
4 | O=C(/C=C/c1ccc(C(F)(F)F)cc1)Nc1ccccc1C(=O)O [Example 5, (E)-2-[3[(4-Trifluoromethyl-phenyl)-acryloylamino]-benzoic acid lithium salt hemihydrate] | – | – | – | IC50 [1, 6]: 5.3 ± 2.8 µM; IC50 (A)/ IC50 (B) ([1]; lithium salt hemihydrate): 27.5; IC50 ([2]; lithium salt hemihydrate): 146 ± 49 µM
5 | C=C(CC(=O)Nc1ccccc1C(=O)O)c1ccc(C(F)(F)F)cc1 [Example 6, 2-[3-(4-Trifluoromethyl-phenyl)-but-3-enoylamino]-benzoic acid] | 18.1 ± 4.2 | – | – | –
6 | C/C(=C\C(=O)Nc1ccccc1C(=O)O)c1ccc(C(F)(F)F)cc1 [Example 7, (E)-2-[3-(4-Trifluoromethyl-phenyl)-but-2-enoylamino]-benzoic acid sodium salt] | – | – | – | IC50 ([1]; isolated rat bladder strips): 7.4 ± 4 µM
7 | C/C(=C\c1ccc(C(F)(F)F)cc1)C(=O)Nc1ccc(Cl)cc1C(=O)O [Example 9, (E)-5-Chloro-2-[2-methyl-3-(4-trifluoromethyl-phenyl)-acryloylamino]-benzoic acid lithium salt hemihydrate] | – | – | – | IC50 [1, 6]: 0.52 ± 0.24 µM; IC50 (A)/ IC50 (B) ([1]; lithium salt hemihydrate): 5.31; IC50 ([2]; lithium salt hemihydrate): 2.76 ± 1.63 µM; % Red (F): percent reduction in the total number of spontaneous contractions [3]: -71 ± 6%
8 | C/C(=C\c1ccc(C(F)(F)F)cc1)C(=O)Nc1cc(Cl)ccc1C(=O)O [Example 11, (E)-4-Chloro-2-[2-methyl-3-(4-trifluoromethyl-phenyl)-acryloylamino]-benzoic acid lithium salt hemihydrate] | – | – | – | IC50 [1, 6]: 3.45 ± 0.75 µM
9 | COc1ccc(/C=C/C(=O)Nc2ccccc2C(=O)O)cc1OC [Tranilast, reference compound] | 14.4 ± 4.5 | – | 15.6 ± 8.96 | smooth muscle relaxant potency and bladder selectivity ([1]; bladder tissue over vascular tissue, Table 1): not to be a potent or bladder selective smooth muscle relaxant
10 | COc1ccc(Cl)cc1C(=O)NCCc1ccc(S(=O)(=O)NC(=O)NC2CCCCC2)cc1 [glyburide, reference compound] | – | – | – | effect of glyburide on outward current [4]: no effect

Now from value to molecule, other results behind:

Row | IC50 [1, 5] [µM] | IC50 (A)/ IC50 (B) [1] | IC50 [2] [µM] | SMILES | also measured
11 | 3.37 ± 0.59 | 11.7 | 39.5 ± 12 | O=C(/C=C/c1ccc(C(F)(F)F)cc1)Nc1ccccc1C(=O)O [Example 4] | –
12 | – | 3.58 | 4.23 ± 0.66 | C/C(=C\c1ccc(C(F)(F)F)cc1)C(=O)Nc1ccc(Cl)cc1C(=O)O [Example 8] | IC50 ([1]; isolated rat bladder strips): 1.18 ± 0.45 µM
13 | – | 4.81 | 6.93 ± 2.4 | C/C(=C\c1ccc(C(F)(F)F)cc1)C(=O)Nc1cc(Cl)ccc1C(=O)O [Example 10, (E)-4-Chloro-2-[2-methyl-3-(4-trifluoromethyl-phenyl)-acryloylamino]-benzoic acid] | IC50 ([1]; isolated rat bladder strips): 1.44 ± 0.85 µM
14 | 11.4 ± 3.8 | – | – | C/C(=C\c1ccc(C(F)(F)F)cc1)C(=O)Nc1ncccc1C(=O)O [Example 12, (E)-2-[2-Methyl-3-(4-trifluoromethyl-phenyl)-acryloylamino]-nicotinic acid] | –
15 | 9.6 ± 7.4 | – | – | COc1ccc(NC(=O)/C(C)=C/c2ccc(C(F)(F)F)cc2)c(C(=O)O)c1 [Example 13, (E)-5-Methoxy-2-[2-methyl-3-(4-trifluoromethyl-phenyl)-acryloylamino]-benzoic acid] | –
16 | 10.8 ± 0.6 | – | – | CCN(CC)C(=O)COC(=O)c1ccccc1NC(=O)/C(C)=C/c1ccc(C(F)(F)F)cc1 [Example 14, (E)-2-[2-Methyl-3-(4-trifluoromethyl-phenyI)-acryloylamino]-benzoic acid diethylcarbamoylmethyl ester] | inhibition at 30 µM ([1]; 30 μM, isolated rat bladder strips, read-out: I = Percent inhibition at 30 μM): 35.6 ± 5%
